Patent publication EP0306300B1, “Pyrrolo(1,2-a)imidazole and imidazo(1,2-a)pyridine derivatives and their use as 5-lipoxygenase pathway inhibitors” (SMITHKLINE BEECHAM CORPORATION, priority 1987, dated 1989)
Entries after “also recorded” stand apart in the source; their conditions may differ. Where two headings read alike, the source gives them in different places.

Assays:
[1] = Cytochrome P-450 inhibition (ethoxycoumarin-O-deethylase activity, phenobarbital-induced microsomes); details: rat
[2] = test system: arachidonic acid-induced edema in mice; assay: Arachidonic acid-induced mouse ear inflammation (ear swelling); assay type: in vivo, male Balb/c mice; details: for inhibition at 50 mg/kg: Mus musculus, po, 1 h, 50 mg/kg p.o., ear thickness one hour after 2 mg arachidonic acid; for antiinflammatory activity: p.o.
Experimental: In the tests used to determine activity as 5-lipoxygenase pathway inhibitors, male Balb/c mice (20-28 g), were used. All mice were obtained from Charles River Breeding Laboratories, Kingston, N.Y. Within a single experiment, mice were age matched.
Reagents were employed as follows: Compounds of Formula (I) were each used as the free base. The compounds were homogenized in 0.5% tragacanth. Compounds were administered by […] at the indicated dose in a final volume of 10 ml/kg.
Arachidonic acid in acetone (2 mg/20 »l) was applied to the inner surface of the left ear. The thickness of both ears was then measured with a dial micrometer one hour after treatment, and the data were expressed as the change in thickness (10⁻³ cm) between treated and untreated ears.
Test compounds were given orally in acid/saline at the times indicated in the text prior to the topical application of arachidonic acid.
Dermatol., 82, 367-371 (1984)].

[3] = test system: arachidonic acid-induced edema in mice; assay: as above; assay type: in vivo, male Balb/c mice; details: 1 h, 50 mg/kg s.c. or i.p., ear thickness one hour after 2 mg arachidonic acid
[4] = target: T1, 5-Lipoxygenase (Rattus norvegicus, UniProt P12527); assay: Assay of 5-lipoxygenase activity in RBL-1 high speed supernatant; assay type: biochemical; details: read-out: 5-LO IC50
T1 construct: the supernatant was centrifuged at 100,000 x g for 60 min; host or cells: RBL-1 cells (soluble cell extract, high-speed supernatant)
T1 sequence (P12527 1-673): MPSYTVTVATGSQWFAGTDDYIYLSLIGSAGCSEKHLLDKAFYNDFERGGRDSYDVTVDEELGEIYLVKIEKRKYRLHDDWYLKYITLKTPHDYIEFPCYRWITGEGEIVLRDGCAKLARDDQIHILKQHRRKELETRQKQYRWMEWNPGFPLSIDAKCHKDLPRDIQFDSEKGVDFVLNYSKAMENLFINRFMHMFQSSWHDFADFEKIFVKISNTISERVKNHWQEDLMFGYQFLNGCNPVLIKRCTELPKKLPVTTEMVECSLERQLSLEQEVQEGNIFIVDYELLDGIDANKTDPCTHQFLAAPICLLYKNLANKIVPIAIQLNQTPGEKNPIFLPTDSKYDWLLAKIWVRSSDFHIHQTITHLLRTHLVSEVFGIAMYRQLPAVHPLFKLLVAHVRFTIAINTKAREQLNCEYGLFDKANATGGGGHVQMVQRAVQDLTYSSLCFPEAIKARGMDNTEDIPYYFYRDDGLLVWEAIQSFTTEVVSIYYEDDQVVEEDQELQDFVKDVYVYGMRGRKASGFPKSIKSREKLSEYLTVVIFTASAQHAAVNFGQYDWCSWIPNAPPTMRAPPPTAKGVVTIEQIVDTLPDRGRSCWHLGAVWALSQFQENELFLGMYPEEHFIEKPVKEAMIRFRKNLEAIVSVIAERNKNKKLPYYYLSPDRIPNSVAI
Experimental: For in vitro experiments, compounds were dissolved at appropriate concentrations in ethanol (final concentration 1.0%) and then diluted to final concentrations using the buffers indicated in the text.
The activities of these enzymes in extracts of RBL-1 cells were assayed using the method of Jakschik and Lee, Nature, 287, 51-52 (1980). RBL-1 cells were obtained from the American Type Culture Collection (#CRL 1378) and were grown at 37°C (5% CO₂ in air) in spinner culture in MEM supplemented with 10% heat inactivated fetal calf serum. Harvested cells were washed with 50 mM sodium phosphate buffer, pH 7.0, containing 1 mM EDTA and 0.1% gelatin, resuspended in fresh buffer (5 x 10⁷ cells/ml) and disrupted by nitrogen cavitation using the Parr bomb at 750 psi for 10 min. The broken cell extract was then centrifuged at 10,000 x g for 20 minutes (min) and the supernatant was centrifuged at 100,000 x g for 60 min. Aliquots (0.25 mls) of the supernatant were preincubated with or without drugs for 10 min, after which 10 ul CaCl₂ (2 mM) was added and the reaction was initiated with 2.5 »l of 2.5 mM arachidonic acid-1-¹⁴C (final concentration was 25 »M; specific activity 20,000 dpm/nmole). After incubation for 5 minutes at 37°C, the reaction was terminated by addition of 2 volumes (0.5 ml) ice cold acetone and the sample was allowed to deproteinize on ice for 10 minutes prior to centrifugation at 1,000 x g for 10 minutes. The deproteinized supernatant was adjusted to pH 3.5 with 2N formic acid and extracted with 2 volumes of ice cold ethyl acetate. The extracted samples were dried under argon, redissolved in ethyl acetate and applied to Whatman LK5D thin layer chromatography (TLC) plates which were developed using the A-9 solvent system [organic phase of ethyl acetate: […]:acetic acid: water (110:50:20:10)] described by Hamberg and Samuelsson, J. Biol. Chem., 241, 257-263 (1966). Arachidonic acid, 5-HETE, LTB₄ and PGD₂ were quantified with a Berthold LB 2832 autoscanner.
Under these conditions, only the 5-lipoxygenase pathway metabolites were detectable. The 5-HETE and di-HETEs were formed at a linear rate, and […] amounts of the arachidonic acid-1-¹⁴C substrate were utilized.

[5] = LTB4 production by RBL-1 high speed supernatant
[6] = total HETE and Di-HETE production by RBL-1 high speed supernatant

IC50 [4, 6] | Compound | inhibition at 50 mg/kg [2] | inhibition at 50 mg/kg [3] | other results
 | COc1ccc(-c2nc3n(c2-c2ccnc(C)c2)CCC3)cc1 [Compound 23] |  |  | IC50 ([1]; liver microsomes): 56.6 µM
 | CSc1ccc(-c2c(-c3ccncc3)nc3n2CCC3)cc1 [Compound 18] | 28% | 32% | 
 | COc1ccc2c(c1)c(CC(=O)O)c(C)n2C(=O)c1ccc(Cl)cc1 [indomethacin, reference compound] |  |  | antiinflammatory activity ([2]; 10 mg/kg): did not reduce inflammation; also recorded: do not exhibit detectable antiinflammatory activity
 | COc1ccc2cc([C@H](C)C(=O)O)ccc2c1 [naproxen, reference compound] |  |  | antiinflammatory activity ([2]; 100 mg/kg): do not exhibit detectable antiinflammatory activity
 | COc1ccc(-c2nc3n(c2-c2ccnc(C)c2)CCC3)cc1 [Compound 22, 2-(4-methoxyphenyl)-3-[4-(2-methyl)pyridyl]-6,7-dihydro-[5H]-pyrrolo[1,2-a]imidazole] | 56% | 57% | 
 | C[S+]([O-])c1ccc(-c2c(-c3ccncc3)nc3n2CCC3)cc1 (stereo not shown) [Compound 19] | 52% | 56% | 
 | Oc1ccc(-c2nc3n(c2-c2ccncc2)CCC3)cc1 [Compound 7] | 27% |  | IC50 [4, 5]: 17 µM
6 µM | CC(C)(C)C(=O)Sc1ccc(-c2nc3n(c2-c2ccncc2)CCC3)cc1 [Compound 12, 2-(4-Trimethylacetylthiophenyl)-3-(4-pyridyl)-6,7-dihydro-[5H]-pyrrolo[1,2-a]imidazole] | 45% |  | 
30 µM | CCSc1ccc(-c2nc3n(c2-c2ccncc2)CCC3)cc1 [Compound 14, 2-(4-Ethylthiophenyl)-3-(4-pyridyl)-6,7-dihydro-[5H]-pyrrolo[1,2-a]imidazole] | 56% |  | IC50 ([1]; liver microsomes): 28.1 µM
> 100 µM | CC[S+]([O-])c1ccc(-c2nc3n(c2-c2ccncc2)CCC3)cc1 (stereo not shown) [Compound 15, 2-(4-Ethylsulfinylphenyl)-3-(4-pyridyl)-6,7-dihydro-[5H]-pyrrolo[1,2-a]imidazole] | 41% |  | IC50 ([1]; liver microsomes): > 100 µM
 | Cc1cc(-c2c(-c3ccc([S+](C)[O-])cc3)nc3n2CCC3)ccn1 (stereo not shown) [Compound 21, 2-(4-Methylsulfinylphenyl)-3-[4-(2-methyl)pyridyl]-6,7-dihydro-[5H]-pyrrolo[1,2-]imidazole] | 59% | 14% | 
 | c1cc(-c2cn3c(n2)CCC3)ccn1 [Compound 17] | 20% | 41% | 
 | CC(C)Cc1ccc(C(C)C(=O)O)cc1 (stereo not shown) [ibuprofen, reference compound] |  |  | antiinflammatory activity ([2]; 250 mg/kg): do not exhibit detectable antiinflammatory activity
 | CCOc1ccc(-c2nc3n(c2-c2ccncc2)CCC3)cc1 [Compound 8] | 62% |  | IC50 [4, 5]: 6 µM
 | CC(C)Oc1ccc(-c2nc3n(c2-c2ccncc2)CCC3)cc1 [Compound 10] | 43% |  | IC50 ([1]; microsomes): 2.5 µM
 | CSc1ccc(-c2nc3n(c2-c2ccnc(C)c2)CCC3)cc1 [Compound 20, 2-(4-Methylthiophenyl)-3-[4-(2-methyl)pyridyl]-6,7-dihydro-[5H]-pyrrolo[1,2,a]imidazole] | 59% | 59% | 
8 µM | CCCOc1ccc(-c2nc3n(c2-c2ccncc2)CCC3)cc1 [Compound 9] | 42% |  | IC50 [4, 5]: 3.5 µM
25 µM | CC(=O)Sc1ccc(-c2nc3n(c2-c2ccncc2)CCC3)cc1 [Compound 11, 2-(4-Acetylthiophenyl)-3-(4-pyridyl)-6,7-dihydro-[5H]-pyrrolo[1,2-a]imidazole] | 46% |  | 

Compound | IC50 [4, 6] | inhibition at 50 mg/kg [2] | inhibition at 50 mg/kg [3] | other results
CC(=O)OCSc1ccc(-c2nc3n(c2-c2ccncc2)CCC3)cc1 [Compound 13, 2-(4-Acetoxymethylthiophenyl)-3-(4-pyridyl)-6,7-dihydro-[5H]-pyrrolo[1,2-a]imidazole] | 47 µM | 51% |  | 
